Data from ChEMBL document CHEMBL5291721, “A preclinical secondary pharmacology resource illuminates target-adverse drug reaction associations of marketed drugs” (Nat Commun, 2023).

Legend:
Acetylcholinesterase = Acetylcholinesterase (Homo sapiens, UniProt P22303); assay type: functional
Adenosine receptor A3 = target: T1, Adenosine receptor A3 (Homo sapiens, UniProt P0DMS8)
T1 sequence (P0DMS8 whole entry): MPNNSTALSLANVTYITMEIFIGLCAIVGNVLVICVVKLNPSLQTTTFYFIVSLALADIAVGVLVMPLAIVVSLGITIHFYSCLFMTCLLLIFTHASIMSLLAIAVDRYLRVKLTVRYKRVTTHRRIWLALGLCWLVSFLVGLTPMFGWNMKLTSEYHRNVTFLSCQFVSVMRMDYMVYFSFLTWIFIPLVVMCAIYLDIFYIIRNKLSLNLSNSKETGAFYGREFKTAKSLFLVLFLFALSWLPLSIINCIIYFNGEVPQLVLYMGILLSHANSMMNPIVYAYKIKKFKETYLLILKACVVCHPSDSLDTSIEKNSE

[1] = target: T2, Alpha-1A adrenergic receptor (Homo sapiens, UniProt P35348); assay type: functional, cell-based
T2 sequence (P35348 whole entry): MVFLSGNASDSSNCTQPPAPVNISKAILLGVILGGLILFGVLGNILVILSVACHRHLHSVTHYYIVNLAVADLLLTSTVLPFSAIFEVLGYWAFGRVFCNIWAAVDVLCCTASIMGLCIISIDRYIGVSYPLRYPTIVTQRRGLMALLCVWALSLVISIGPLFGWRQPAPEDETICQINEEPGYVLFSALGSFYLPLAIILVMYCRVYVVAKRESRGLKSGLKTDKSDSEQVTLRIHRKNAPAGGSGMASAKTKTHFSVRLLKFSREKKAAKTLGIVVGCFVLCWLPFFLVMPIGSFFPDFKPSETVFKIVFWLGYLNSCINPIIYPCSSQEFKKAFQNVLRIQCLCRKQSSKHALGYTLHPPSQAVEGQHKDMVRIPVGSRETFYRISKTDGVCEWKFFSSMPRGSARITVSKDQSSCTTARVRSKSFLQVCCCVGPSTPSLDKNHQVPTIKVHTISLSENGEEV

[2] = target: T3, 5-hydroxytryptamine receptor 1A (Homo sapiens, UniProt P08908)
T3 sequence (P08908 whole entry): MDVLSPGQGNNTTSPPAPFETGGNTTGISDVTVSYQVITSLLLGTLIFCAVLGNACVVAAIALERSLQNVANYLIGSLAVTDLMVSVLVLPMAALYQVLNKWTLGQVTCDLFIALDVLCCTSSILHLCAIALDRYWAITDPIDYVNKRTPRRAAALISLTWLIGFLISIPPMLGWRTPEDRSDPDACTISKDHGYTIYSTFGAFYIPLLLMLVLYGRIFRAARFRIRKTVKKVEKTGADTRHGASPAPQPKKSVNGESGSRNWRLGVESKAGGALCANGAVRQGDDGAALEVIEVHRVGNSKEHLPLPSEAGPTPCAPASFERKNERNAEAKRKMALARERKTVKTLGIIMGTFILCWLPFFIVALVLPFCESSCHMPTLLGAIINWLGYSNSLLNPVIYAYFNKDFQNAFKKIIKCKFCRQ

[3] = target: cGMP-inhibited 3',5'-cyclic phosphodiesterase 3A (Homo sapiens, UniProt Q14432); assay type: functional
Progesterone receptor = target: T4, Progesterone receptor (Homo sapiens, UniProt P06401)
T4 sequence (P06401 whole entry): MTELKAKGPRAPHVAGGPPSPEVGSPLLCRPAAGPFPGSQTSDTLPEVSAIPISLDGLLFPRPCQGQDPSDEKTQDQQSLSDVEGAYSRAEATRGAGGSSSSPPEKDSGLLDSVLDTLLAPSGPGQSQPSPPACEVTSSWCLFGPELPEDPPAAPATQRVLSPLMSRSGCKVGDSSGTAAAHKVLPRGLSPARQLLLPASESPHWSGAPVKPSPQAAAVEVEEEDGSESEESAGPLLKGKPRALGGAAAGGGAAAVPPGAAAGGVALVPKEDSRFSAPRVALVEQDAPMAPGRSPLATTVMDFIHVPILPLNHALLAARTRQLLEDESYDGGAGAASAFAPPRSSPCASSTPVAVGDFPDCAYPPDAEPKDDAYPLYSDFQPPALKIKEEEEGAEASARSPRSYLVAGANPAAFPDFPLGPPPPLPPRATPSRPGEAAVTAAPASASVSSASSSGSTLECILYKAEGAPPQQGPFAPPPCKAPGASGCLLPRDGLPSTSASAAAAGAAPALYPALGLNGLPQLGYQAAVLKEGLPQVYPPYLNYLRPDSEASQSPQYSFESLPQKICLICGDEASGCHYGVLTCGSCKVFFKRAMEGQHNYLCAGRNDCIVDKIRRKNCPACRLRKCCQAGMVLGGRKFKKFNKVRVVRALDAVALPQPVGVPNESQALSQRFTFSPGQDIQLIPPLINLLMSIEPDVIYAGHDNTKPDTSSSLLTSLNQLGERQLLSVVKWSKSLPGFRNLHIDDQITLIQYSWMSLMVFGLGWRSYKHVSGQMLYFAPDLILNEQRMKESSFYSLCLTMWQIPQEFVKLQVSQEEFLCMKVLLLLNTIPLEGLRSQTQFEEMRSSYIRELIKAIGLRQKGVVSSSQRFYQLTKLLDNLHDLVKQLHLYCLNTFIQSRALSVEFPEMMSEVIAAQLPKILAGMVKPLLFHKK

[4] = target: Prostaglandin G/H synthase 1 (Homo sapiens, UniProt P23219); assay type: functional
[5] = target: Sodium-dependent serotonin transporter (Homo sapiens, UniProt P31645)
Thromboxane A2 receptor = target: T5, Thromboxane A2 receptor (Homo sapiens, UniProt P21731); assay type: functional, cell-based
T5 sequence (P21731 whole entry): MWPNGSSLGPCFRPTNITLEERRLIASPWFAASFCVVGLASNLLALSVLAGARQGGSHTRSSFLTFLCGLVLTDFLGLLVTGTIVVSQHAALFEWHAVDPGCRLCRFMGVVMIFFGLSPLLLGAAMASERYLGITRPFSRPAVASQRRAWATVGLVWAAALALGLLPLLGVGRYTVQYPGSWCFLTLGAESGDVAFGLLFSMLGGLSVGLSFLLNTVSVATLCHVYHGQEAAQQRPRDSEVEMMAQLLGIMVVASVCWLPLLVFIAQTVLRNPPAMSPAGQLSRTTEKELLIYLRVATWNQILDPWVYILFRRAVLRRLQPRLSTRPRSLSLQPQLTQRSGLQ
Also: assay procedure not described here.

Prostaglandin G/H synthase 1, sequence (P23219 whole entry): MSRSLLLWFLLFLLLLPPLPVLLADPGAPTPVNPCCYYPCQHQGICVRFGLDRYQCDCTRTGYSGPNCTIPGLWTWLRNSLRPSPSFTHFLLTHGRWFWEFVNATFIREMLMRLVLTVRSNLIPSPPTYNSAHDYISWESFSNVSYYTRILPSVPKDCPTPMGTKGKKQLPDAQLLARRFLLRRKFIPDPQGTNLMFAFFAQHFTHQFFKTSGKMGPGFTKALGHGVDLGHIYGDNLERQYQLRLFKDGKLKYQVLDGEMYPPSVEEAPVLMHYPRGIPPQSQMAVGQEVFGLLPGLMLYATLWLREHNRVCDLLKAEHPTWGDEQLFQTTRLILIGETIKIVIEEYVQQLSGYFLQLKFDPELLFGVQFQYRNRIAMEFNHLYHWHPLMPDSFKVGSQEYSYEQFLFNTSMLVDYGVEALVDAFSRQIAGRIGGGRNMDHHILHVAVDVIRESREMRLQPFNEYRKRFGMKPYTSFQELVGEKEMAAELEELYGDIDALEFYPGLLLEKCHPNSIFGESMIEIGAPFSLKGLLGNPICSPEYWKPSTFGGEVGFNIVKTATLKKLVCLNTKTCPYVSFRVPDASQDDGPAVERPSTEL
Acetylcholinesterase, sequence (P22303 whole entry): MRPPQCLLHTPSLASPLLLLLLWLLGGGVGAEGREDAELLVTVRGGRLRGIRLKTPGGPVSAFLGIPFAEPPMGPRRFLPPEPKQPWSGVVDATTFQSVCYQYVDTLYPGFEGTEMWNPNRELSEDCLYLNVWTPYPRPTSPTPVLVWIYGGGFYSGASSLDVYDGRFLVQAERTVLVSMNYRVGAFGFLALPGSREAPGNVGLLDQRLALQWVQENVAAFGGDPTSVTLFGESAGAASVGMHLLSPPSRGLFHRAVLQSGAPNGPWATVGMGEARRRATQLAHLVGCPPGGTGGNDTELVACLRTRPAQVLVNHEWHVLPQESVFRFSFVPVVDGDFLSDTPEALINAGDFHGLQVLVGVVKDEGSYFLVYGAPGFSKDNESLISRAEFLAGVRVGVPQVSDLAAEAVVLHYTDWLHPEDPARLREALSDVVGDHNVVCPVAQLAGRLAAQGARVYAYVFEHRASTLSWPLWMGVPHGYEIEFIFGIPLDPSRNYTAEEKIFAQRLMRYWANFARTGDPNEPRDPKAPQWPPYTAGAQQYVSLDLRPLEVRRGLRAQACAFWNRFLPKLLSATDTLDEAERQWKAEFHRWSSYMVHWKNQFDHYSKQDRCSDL
cGMP-inhibited 3',5'-cyclic phosphodiesterase 3A, sequence (Q14432 whole entry): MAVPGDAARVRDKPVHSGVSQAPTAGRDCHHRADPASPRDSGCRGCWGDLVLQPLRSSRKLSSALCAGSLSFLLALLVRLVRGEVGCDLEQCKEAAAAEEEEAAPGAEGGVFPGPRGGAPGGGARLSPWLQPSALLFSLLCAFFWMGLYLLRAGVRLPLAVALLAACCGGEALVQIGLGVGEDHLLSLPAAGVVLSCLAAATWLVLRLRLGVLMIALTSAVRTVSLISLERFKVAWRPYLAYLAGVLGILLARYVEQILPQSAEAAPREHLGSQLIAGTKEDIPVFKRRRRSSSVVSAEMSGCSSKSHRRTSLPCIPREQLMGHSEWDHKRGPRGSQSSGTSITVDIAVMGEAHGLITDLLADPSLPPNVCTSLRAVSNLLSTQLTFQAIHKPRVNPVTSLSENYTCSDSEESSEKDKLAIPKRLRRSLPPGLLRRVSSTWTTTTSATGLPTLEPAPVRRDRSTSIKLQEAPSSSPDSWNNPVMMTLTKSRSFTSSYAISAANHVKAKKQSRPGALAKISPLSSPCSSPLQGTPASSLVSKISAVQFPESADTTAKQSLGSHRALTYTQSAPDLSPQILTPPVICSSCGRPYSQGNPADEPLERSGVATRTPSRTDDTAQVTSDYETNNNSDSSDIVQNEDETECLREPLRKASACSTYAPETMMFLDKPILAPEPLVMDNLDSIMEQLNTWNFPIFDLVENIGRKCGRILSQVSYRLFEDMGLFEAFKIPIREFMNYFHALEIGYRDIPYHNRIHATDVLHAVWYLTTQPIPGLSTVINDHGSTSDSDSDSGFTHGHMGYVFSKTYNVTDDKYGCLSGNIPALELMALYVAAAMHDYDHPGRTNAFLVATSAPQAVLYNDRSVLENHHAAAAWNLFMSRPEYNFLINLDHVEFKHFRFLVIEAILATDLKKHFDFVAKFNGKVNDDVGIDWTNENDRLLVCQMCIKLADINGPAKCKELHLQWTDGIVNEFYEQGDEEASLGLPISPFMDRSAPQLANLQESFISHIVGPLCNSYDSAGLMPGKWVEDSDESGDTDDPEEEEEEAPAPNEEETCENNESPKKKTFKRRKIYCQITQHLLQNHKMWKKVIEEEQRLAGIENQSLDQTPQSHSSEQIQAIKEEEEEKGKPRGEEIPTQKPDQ
Sodium-dependent serotonin transporter, sequence (P31645 whole entry): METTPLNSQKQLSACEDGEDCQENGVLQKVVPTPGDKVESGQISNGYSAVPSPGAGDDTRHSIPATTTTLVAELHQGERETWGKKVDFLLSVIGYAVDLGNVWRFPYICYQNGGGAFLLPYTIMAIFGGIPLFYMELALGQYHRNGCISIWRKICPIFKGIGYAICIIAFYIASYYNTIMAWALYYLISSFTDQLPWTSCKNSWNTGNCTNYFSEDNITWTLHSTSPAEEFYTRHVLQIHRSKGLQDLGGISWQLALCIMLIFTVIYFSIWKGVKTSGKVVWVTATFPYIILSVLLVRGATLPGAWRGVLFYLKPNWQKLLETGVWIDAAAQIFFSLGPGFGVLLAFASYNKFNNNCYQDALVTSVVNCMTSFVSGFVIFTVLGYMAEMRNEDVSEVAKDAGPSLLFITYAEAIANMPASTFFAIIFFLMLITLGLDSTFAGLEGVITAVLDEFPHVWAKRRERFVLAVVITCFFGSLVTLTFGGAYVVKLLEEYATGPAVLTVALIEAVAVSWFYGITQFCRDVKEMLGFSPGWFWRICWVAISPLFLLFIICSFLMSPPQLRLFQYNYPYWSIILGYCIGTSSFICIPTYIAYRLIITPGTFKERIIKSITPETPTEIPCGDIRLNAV

## Nc1ncnc(Nc2ccc(Cl)cc2)n1 [CHLORAZANIL]
Acetylcholinesterase
  AC50: > 30 µM
Adenosine receptor A3
  AC50: 7.95 µM
[1]
  AC50: > 30 µM
[2]
  AC50: > 30 µM
[3]
  AC50: > 30 µM
Progesterone receptor
  AC50: > 30 µM
[4]
  AC50: > 30 µM
[5]
  AC50: > 30 µM
Thromboxane A2 receptor
  AC50: > 30 µM

## CCC[C@@H]1C[C@@H](C(=O)N[C@@H]([C@H]2O[C@H](SC)[C@H](OP(=O)(O)O)[C@@H](O)[C@H]2O)[C@H](C)Cl)N(C)C1 [CLINDAMYCIN PHOSPHATE]
Acetylcholinesterase
  AC50: > 30 µM
Adenosine receptor A3
  AC50: > 30 µM
[1]
  AC50: > 30 µM
[2]
  AC50: > 30 µM
[3]
  AC50: > 30 µM
Progesterone receptor
  AC50: > 30 µM
[4]
  AC50: > 30 µM
[5]
  AC50: > 30 µM
Thromboxane A2 receptor
  AC50: > 30 µM

## C[C@@H]1C[C@H]2[C@@H]3C[C@H](F)C4=CC(=O)C=C[C@]4(C)[C@@]3(Cl)[C@@H](O)C[C@]2(C)[C@H]1C(=O)COC(=O)C(C)(C)C [CLOCORTOLONE PIVALATE]
Acetylcholinesterase
  AC50: > 30 µM
Adenosine receptor A3
  AC50: 5.52 µM
[1]
  AC50: > 30 µM
[2]
  AC50: > 30 µM
[3]
  AC50: > 30 µM
Progesterone receptor
  AC50: 0.0118 µM
[4]
  AC50: > 30 µM
[5]
  AC50: > 30 µM
Thromboxane A2 receptor
  AC50: > 30 µM

## Cc1cc(CCN2CCN(c3cccc(Cl)c3)CC2)n[nH]1 [MEPIPRAZOLE]
Acetylcholinesterase
  AC50: > 30 µM
Adenosine receptor A3
  AC50: > 30 µM
[2]
  AC50: 0.003 µM
[3]
  AC50: > 30 µM
Progesterone receptor
  AC50: > 30 µM
[4]
  AC50: > 30 µM
[5]
  AC50: 3.8 µM
Thromboxane A2 receptor
  AC50: > 30 µM

## c1ccc2c(CC3=NCCN3)cccc2c1 [NAPHAZOLINE]
Acetylcholinesterase
  AC50: > 30 µM
Adenosine receptor A3
  AC50: > 30 µM
[2]
  AC50: 0.114 µM
[3]
  AC50: > 30 µM
Progesterone receptor
  AC50: > 30 µM
[4]
  AC50: > 30 µM
[5]
  AC50: > 30 µM
Thromboxane A2 receptor
  AC50: > 30 µM

## N[C@@H](Cc1c[nH]c2ccc(O)cc12)C(=O)O [OXITRIPTAN]
Acetylcholinesterase
  AC50: > 30 µM
Adenosine receptor A3
  AC50: 0.765 µM
[1]
  AC50: > 30 µM
[3]
  AC50: > 30 µM
Progesterone receptor
  AC50: > 30 µM
[4]
  AC50: > 3 µM
[5]
  AC50: 15.5 µM
Thromboxane A2 receptor
  AC50: > 30 µM

## CO[C@H]1/C=C/O[C@@]2(C)Oc3c(C)c(O)c4c(O)c(cc(O)c4c3C2=O)NC(=O)/C(C)=C\C=C\[C@H](C)[C@H](O)[C@@H](C)[C@@H](O)[C@@H](C)[C@H](OC(C)=O)[C@@H]1C [RIFAMYCIN]
Acetylcholinesterase
  AC50: > 30 µM
Adenosine receptor A3
  AC50: > 30 µM
[2]
  AC50: > 30 µM
[3]
  AC50: > 30 µM
Progesterone receptor
  AC50: > 30 µM
[4]
  AC50: > 30 µM
[5]
  AC50: > 30 µM

## CCOC(=O)[C@H](CCc1ccccc1)N[C@H]1CS[C@H](c2cccs2)CN(CC(=O)O)C1=O [TEMOCAPRIL]
Acetylcholinesterase
  AC50: > 30 µM
Adenosine receptor A3
  AC50: > 30 µM
[1]
  AC50: > 30 µM
[2]
  AC50: > 30 µM
[3]
  AC50: > 30 µM
[4]
  AC50: > 30 µM
[5]
  AC50: > 30 µM
Thromboxane A2 receptor
  AC50: > 30 µM

## CCSc1ccc2c(c1)N(CCCN1CCN(C)CC1)c1ccccc1S2 [THIETHYLPERAZINE]
Acetylcholinesterase
  AC50: > 30 µM
Adenosine receptor A3
  AC50: 6.62 µM
[2]
  AC50: 0.449 µM
[3]
  AC50: > 30 µM
Progesterone receptor
  AC50: 24.4 µM
[4]
  AC50: > 0.3 µM
[5]
  AC50: 4.88 µM
Thromboxane A2 receptor
  AC50: 3.98 µM
